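Cells were grown in 96-well plates and exposed to each compound for 48 hours at five concentrations; endpoints were interpolated linearly between bracketing concentrations, or set to the highest concentration if not reached. TGI: total growth inhibition.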
Columns and labels:
Assay in all cases: NCI-60 cell line screen, 48 h
NCI-H226 lung = test system: NCI-H226 lung
K-562 leukemia = test system: K-562 leukemia
LOX IMVI melanoma = test system: LOX IMVI melanoma
HOP-62 NSCLC = test system: HOP-62 NSCLC
EKVX NSCLC = test system: EKVX NSCLC
BT-549 breast = test system: BT-549 breast
TK-10 renal = test system: TK-10 renal
U251 CNS = test system: U251 CNS
HCC-2998 colon = test system: HCC-2998 colon
DU-145 prostate = test system: DU-145 prostate
NCI-H23 lung = test system: NCI-H23 lung
MDA-N = test system: MDA-N
T-47D breast = test system: T-47D breast
SF-539 CNS = test system: SF-539 CNS
MCF7 breast = test system: MCF7 breast
SF-295 CNS = test system: SF-295 CNS
HS 578T breast = test system: HS 578T breast
MOLT-4 leukemia = test system: MOLT-4 leukemia
HL-60(TB) leukemia = test system: HL-60(TB) leukemia
IGROV1 ovarian = test system: IGROV1 ovarian
HT29 colon = test system: HT29 colon
A549 NSCLC = test system: A549 NSCLC
COLO 205 colon = test system: COLO 205 colon
NCI-H522 lung = test system: NCI-H522 lung
RXF 393 renal = test system: RXF 393 renal
HOP-92 NSCLC = test system: HOP-92 NSCLC
NCI/ADR-RES ovarian = test system: NCI/ADR-RES ovarian
UACC-62 melanoma = test system: UACC-62 melanoma
HCT-116 colon = test system: HCT-116 colon
SK-OV-3 ovarian = test system: SK-OV-3 ovarian
SR leukemia = test system: SR leukemia
SK-MEL-28 melanoma = test system: SK-MEL-28 melanoma
MDA-MB-435 = test system: MDA-MB-435
UO-31 renal = test system: UO-31 renal
MDA-MB-231 breast = test system: MDA-MB-231 breast
CCRF-CEM leukemia = test system: CCRF-CEM leukemia
RPMI-8226 leukemia = test system: RPMI-8226 leukemia
SNB-75 CNS = test system: SNB-75 CNS
786-0 renal = test system: 786-0 renal
OVCAR-4 ovarian = test system: OVCAR-4 ovarian
M14 melanoma = test system: M14 melanoma
OVCAR-8 ovarian = test system: OVCAR-8 ovarian
PC-3 prostate = test system: PC-3 prostate
NCI-H460 lung = test system: NCI-H460 lung
SF-268 CNS = test system: SF-268 CNS
CAKI-1 renal = test system: CAKI-1 renal
OVCAR-3 ovarian = test system: OVCAR-3 ovarian
HCT-15 colon = test system: HCT-15 colon
SW-620 colon = test system: SW-620 colon
MALME-3M melanoma = test system: MALME-3M melanoma
SK-MEL-5 melanoma = test system: SK-MEL-5 melanoma
SK-MEL-2 melanoma = test system: SK-MEL-2 melanoma
KM12 colon = test system: KM12 colon
OVCAR-5 ovarian = test system: OVCAR-5 ovarian
SN12C renal = test system: SN12C renal
ACHN renal = test system: ACHN renal
SNB-19 CNS = test system: SNB-19 CNS
UACC-257 melanoma = test system: UACC-257 melanoma
A498 renal = test system: A498 renal
DMS 114 small cell lung = test system: DMS 114 small cell lung
M19-MEL melanoma = test system: M19-MEL melanoma
KM20L2 colon = test system: KM20L2 colon
DLD-1 colon = test system: DLD-1 colon
DMS 273 small cell lung = test system: DMS 273 small cell lung

SMILES: CC1OC(OC2C(O)COC(OC3C(C)OC(OC4C(OC(=O)[C@]56CCC(C)(C)C[C@@H]5C5=CCC7[C@@]8(C)C[C@H](O)[C@H](OC9OC(CO)C(O)C(OC%10OC(CO)C(O)C(O)C%10O)C9O)[C@@](C)(CO)[C@@H]8CC[C@@]7(C)[C@]5(C)CC6)OCC(O)C4O)C(O)C3OC3OCC(O)C(O)C3O)C2O)C(O)C(O)C1O (stereo partly specified)
- TGI (NCI-H226 lung): 25.1 µM
- TGI (K-562 leukemia): > 52.3 µM
- TGI (LOX IMVI melanoma): 29.6 µM
- TGI (HOP-62 NSCLC): 20.3 µM
- TGI (EKVX NSCLC): 15.6 µM
- TGI (BT-549 breast): 25.8 µM
- TGI (TK-10 renal): 22.7 µM
- TGI (U251 CNS): 20.1 µM
- TGI (HCC-2998 colon): 4.44 µM
- TGI (DU-145 prostate): 19.7 µM
- TGI (NCI-H23 lung): 10.4 µM
- TGI (MDA-N): 7.24 µM
- TGI (T-47D breast): 14 µM
- TGI (SF-539 CNS): 32.1 µM
- TGI (MCF7 breast): 43.5 µM
- TGI (SF-295 CNS): 9.81 µM
- TGI (HS 578T breast): 34.8 µM
- TGI (MOLT-4 leukemia): 36.1 µM
- TGI (HL-60(TB) leukemia): 15 µM
- TGI (IGROV1 ovarian): 24.5 µM
- TGI (HT29 colon): 33.9 µM
- TGI (A549 NSCLC): 4.29 µM
- TGI (COLO 205 colon): 3.82 µM
- TGI (NCI-H522 lung): 26.4 µM
- TGI (RXF 393 renal): 21.6 µM
- TGI (HOP-92 NSCLC): 31.1 µM
- TGI (NCI/ADR-RES ovarian): 26.4 µM
- TGI (UACC-62 melanoma): 12.6 µM
- TGI (HCT-116 colon): 23.7 µM
- TGI (SK-OV-3 ovarian): 29.4 µM
- TGI (SR leukemia): 27 µM
- TGI (SK-MEL-28 melanoma): 5.17 µM
- TGI (MDA-MB-435): 7.72 µM
- TGI (UO-31 renal): 9.92 µM
- TGI (MDA-MB-231 breast): 8.87 µM
- TGI (CCRF-CEM leukemia): 25.2 µM
- TGI (RPMI-8226 leukemia): 76.8 µM
- TGI (SNB-75 CNS): 30.9 µM
- TGI (786-0 renal): 17.7 µM
- TGI (OVCAR-4 ovarian): 29.8 µM
- TGI (M14 melanoma): 3.58 µM
- TGI (OVCAR-8 ovarian): 29 µM
- TGI (PC-3 prostate): 16.1 µM
- TGI (NCI-H460 lung): 34.8 µM
- TGI (SF-268 CNS): 30 µM
- TGI (CAKI-1 renal): 16.3 µM
- TGI (OVCAR-3 ovarian): 27.2 µM
- TGI (HCT-15 colon): 28.2 µM
- TGI (SW-620 colon): 20.6 µM
- TGI (MALME-3M melanoma): 29.9 µM
- TGI (SK-MEL-5 melanoma): 15 µM
- TGI (SK-MEL-2 melanoma): 11.7 µM
- TGI (KM12 colon): 33.5 µM
- TGI (OVCAR-5 ovarian): 22.8 µM
- TGI (SN12C renal): 3.87 µM
- TGI (ACHN renal): 19.5 µM
- TGI (SNB-19 CNS): 20.3 µM
- TGI (UACC-257 melanoma): 16.8 µM
- TGI (A498 renal): 5 µM

SMILES: CC1=CCC[C@@H]2[C@@](C)(Cc3cc(O)ccc3O)[C@H](C)CC[C@@]12C
- TGI (NCI-H226 lung): 39.3 µM
- TGI (K-562 leukemia): 36 µM
- TGI (LOX IMVI melanoma): 17.7 µM
- TGI (HOP-62 NSCLC): 22.1 µM
- TGI (EKVX NSCLC): 20.3 µM
- TGI (BT-549 breast): 13.1 µM
- TGI (TK-10 renal): 22.2 µM
- TGI (U251 CNS): 15.9 µM
- TGI (HCC-2998 colon): 22.5 µM
- TGI (DU-145 prostate): 27.1 µM
- TGI (NCI-H23 lung): 14.1 µM
- TGI (MDA-N): 17 µM
- TGI (T-47D breast): 20.1 µM
- TGI (SF-539 CNS): 18.4 µM
- TGI (MCF7 breast): 18.7 µM
- TGI (SF-295 CNS): 20 µM
- TGI (HS 578T breast): 20.6 µM
- TGI (MOLT-4 leukemia): 15 µM
- TGI (HL-60(TB) leukemia): 6.6 µM
- TGI (IGROV1 ovarian): 18.2 µM
- TGI (HT29 colon): 42.7 µM
- TGI (A549 NSCLC): 17.6 µM
- TGI (COLO 205 colon): 36.5 µM
- TGI (NCI-H522 lung): 14.1 µM
- TGI (RXF 393 renal): 17.1 µM
- TGI (HOP-92 NSCLC): 15.2 µM
- TGI (NCI/ADR-RES ovarian): 18.9 µM
- TGI (UACC-62 melanoma): 25.1 µM
- TGI (HCT-116 colon): 18.8 µM
- TGI (SK-OV-3 ovarian): 26 µM
- TGI (SR leukemia): 12.6 µM
- TGI (SK-MEL-28 melanoma): 25.5 µM
- TGI (MDA-MB-435): 19.5 µM
- TGI (UO-31 renal): 12.8 µM
- TGI (MDA-MB-231 breast): 30.2 µM
- TGI (CCRF-CEM leukemia): 15.1 µM
- TGI (RPMI-8226 leukemia): 21.7 µM
- TGI (SNB-75 CNS): 17.9 µM
- TGI (786-0 renal): 21.7 µM
- TGI (OVCAR-4 ovarian): 25.7 µM
- TGI (M14 melanoma): 15.7 µM
- TGI (OVCAR-8 ovarian): 16.7 µM
- TGI (PC-3 prostate): 14.1 µM
- TGI (NCI-H460 lung): 22.4 µM
- TGI (SF-268 CNS): 24 µM
- TGI (CAKI-1 renal): 25.7 µM
- TGI (OVCAR-3 ovarian): 15.3 µM
- TGI (HCT-15 colon): 16 µM
- TGI (SW-620 colon): 25.2 µM
- TGI (MALME-3M melanoma): 33.1 µM
- TGI (SK-MEL-5 melanoma): 19.1 µM
- TGI (SK-MEL-2 melanoma): 27.9 µM
- TGI (KM12 colon): 16.4 µM
- TGI (OVCAR-5 ovarian): 28.3 µM
- TGI (SN12C renal): 27 µM
- TGI (ACHN renal): 18 µM
- TGI (SNB-19 CNS): 21.5 µM
- TGI (UACC-257 melanoma): 26.2 µM
- TGI (A498 renal): 32.7 µM

SMILES: O=C1CN2C(Cl)(Cl)C2(c2ccccc2)c2cc(Cl)ccc2N1CC(F)(F)F (stereo unspecified)
- TGI (NCI-H226 lung): 67 µM
- TGI (K-562 leukemia): 72.1 µM
- TGI (LOX IMVI melanoma): 39 µM
- TGI (HOP-62 NSCLC): 60.7 µM
- TGI (DMS 114 small cell lung): 66.6 µM
- TGI (EKVX NSCLC): > 100 µM
- TGI (M19-MEL melanoma): > 100 µM
- TGI (TK-10 renal): > 100 µM
- TGI (U251 CNS): 37.8 µM
- TGI (HCC-2998 colon): 35.9 µM
- TGI (NCI-H23 lung): 70.1 µM
- TGI (SF-295 CNS): > 100 µM
- TGI (MOLT-4 leukemia): 55.8 µM
- TGI (IGROV1 ovarian): 73.7 µM
- TGI (HT29 colon): 48.1 µM
- TGI (COLO 205 colon): 39.3 µM
- TGI (NCI-H522 lung): 42.7 µM
- TGI (RXF 393 renal): 63.6 µM
- TGI (HOP-92 NSCLC): 41.1 µM
- TGI (UACC-62 melanoma): > 100 µM
- TGI (HCT-116 colon): 49.3 µM
- TGI (SK-OV-3 ovarian): > 100 µM
- TGI (SR leukemia): 69.9 µM
- TGI (SK-MEL-28 melanoma): 61 µM
- TGI (UO-31 renal): > 100 µM
- TGI (CCRF-CEM leukemia): 42.3 µM
- TGI (RPMI-8226 leukemia): 78.5 µM
- TGI (SNB-75 CNS): 51.2 µM
- TGI (OVCAR-4 ovarian): 43.7 µM
- TGI (M14 melanoma): 77.5 µM
- TGI (OVCAR-8 ovarian): > 100 µM
- TGI (NCI-H460 lung): 35.9 µM
- TGI (SF-268 CNS): > 100 µM
- TGI (CAKI-1 renal): > 100 µM
- TGI (OVCAR-3 ovarian): 39 µM
- TGI (HCT-15 colon): 81.6 µM
- TGI (SW-620 colon): > 100 µM
- TGI (MALME-3M melanoma): 87 µM
- TGI (SK-MEL-5 melanoma): 33.2 µM
- TGI (SK-MEL-2 melanoma): 54.9 µM
- TGI (KM12 colon): 42.2 µM
- TGI (KM20L2 colon): > 100 µM
- TGI (OVCAR-5 ovarian): > 100 µM
- TGI (SN12C renal): 30.6 µM
- TGI (ACHN renal): > 100 µM
- TGI (DLD-1 colon): 42.9 µM
- TGI (UACC-257 melanoma): 51.9 µM
- TGI (DMS 273 small cell lung): 72.7 µM
